Laboratory results from patent US20250340565A1, “CD73 INHIBITOR COMPOUNDS” (AdoRx Therapeutics Limited, priority 2022, published 2025).
Structures can show the parent of a compound that is named as a salt.

Experiments:
[1] = target: human (h)CD73 (amino acids Trp27-Lys547) (Homo sapiens, UniProt P21589); experiment: CD73 inhibition assay (Malachite Green phosphate detection); assay type: biochemical; details: 250 pM hCD73, 12.5 μM AMP, 20 min pre-incubation, absorbance 620 nm
Method: Compound inhibition of human (h)CD73 (amino acids Trp27-Lys547, R&D Systems 5795-EN-500) enzymatic activity was tested via the Malachite Green Phosphate Detection Kit (R&D DY996). Experiments were performed in 20 μL Tris buffer (25 mM Tris pH 7.5, 5 mM MgCl2, 0.002% Tween20), with 250 pM of hCD73. Test compounds of interest were prepared in a threefold serial dilution in DMSO and added to the assay to give the appropriate final concentration, with the assay DMSO concentration being 1%. Compounds were pre-incubated for 20 minutes with hCD73 in a 384 well clear plate (Greiner 781101), followed by the addition of adenosine monophosphate (AMP) to 12.5 μM. The enzymatic reaction was carried out for 20 min at room temperature. 5 μL of Malachite kit reagent A was added to stop the reaction (contains 3M H2SO4) and after 10 min, 5 μL of Malachite kit reagent B was added (Malachite Green). After 30 min, absorbance at 620 nm was read on a BMG Pherastar FSX.
Data were normalised to measurements in the absence of competing compound (0% inhibition) and in the presence of 10 μM control compound (100% inhibition).

[2] = target: CD73 activity in U138-MG cells (Homo sapiens (Human), UniProt P21589); experiment: U138-MG inhibition assay (inorganic phosphate from AMP, PiColorLock Gold); assay type: cell-based; details: 100 μM AMP, 30 min pre-incubation, 1 hour at 37° C.
CD73 activity in U138-MG cells, sequence (P21589 27-574): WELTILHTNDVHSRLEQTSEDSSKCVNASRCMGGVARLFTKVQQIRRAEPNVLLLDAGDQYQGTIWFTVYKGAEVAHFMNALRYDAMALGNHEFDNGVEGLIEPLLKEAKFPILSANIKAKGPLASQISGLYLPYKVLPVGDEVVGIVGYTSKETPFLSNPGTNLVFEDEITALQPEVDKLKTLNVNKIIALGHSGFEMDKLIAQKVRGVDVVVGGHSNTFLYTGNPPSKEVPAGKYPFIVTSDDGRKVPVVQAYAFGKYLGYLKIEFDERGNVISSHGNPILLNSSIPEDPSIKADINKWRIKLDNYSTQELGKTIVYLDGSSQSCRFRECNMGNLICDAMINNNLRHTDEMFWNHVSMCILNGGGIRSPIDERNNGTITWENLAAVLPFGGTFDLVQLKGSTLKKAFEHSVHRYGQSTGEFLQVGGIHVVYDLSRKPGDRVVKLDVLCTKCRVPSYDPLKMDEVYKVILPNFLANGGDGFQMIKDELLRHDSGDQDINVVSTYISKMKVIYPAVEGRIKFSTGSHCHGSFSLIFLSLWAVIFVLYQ
Method: U138-MG cells from ATCC are cultured in DMEM (Gibco 31966) with 10% FBS. Cells are seeded into 96-well culture plates (5,000 cell/well) in 100 μL of media for 24 hr. Cells are washed twice with 200 μL of assay buffer (20 mM HEPES, pH 7.4; 137 mM NaCl; 5.4 mM KCl; 1.3 mM CaCl2; 4.2 mM NaHCO3; 1 mg/mL glucose) to remove residual inorganic phosphate. CD73 inhibitor is added to each well in 100 μl volume and preincubated for 30 mins at 37° C. An equal volume of AMP substrate (Sigma A1572) is added to each well at a final concentration of 100 μM and incubated at 37° C. for 1 hour. Control wells containing cells but lacking added AMP, define the assay signal equivalent to 100% inhibition of CD73 activity. Supernatant is removed for measurement of inorganic phosphate using the PiColorLock Gold kit (Abcam, ab 270004).
The IC50 values of test compounds are determined as the inflection point of the sigmoidal concentration response curve.

CD73 in whole blood = CD73 in whole blood (Homo sapiens (Human), UniProt P21589); experiment: Whole blood AMP Glo assay; assay type: cell-based; details: whole blood of healthy volunteers, 10 μM AMP, 30 min pre-incubation, 15 min at 37° C., levamisole 1.5 mM
CD73 in whole blood, sequence (P21589 27-574): as above
Method: Blood is drawn from healthy volunteers by venepuncture and anti-coagulated with Lithium Heparin (10 IU/mi). 150 μl of blood is added to U-bottom polypropylene 96-well assay plates pre-filled with 20 μl of compound dilutions prepared in RPMI also containing the Tissue Non-specific Alkaline Phosphatase inhibitor Levamisole (final assay concentration 1.5 mM). Control wells to define uninhibited CD73 contain DMSO in place of compound. Control wells to define complete stabilization of AMP attributable to CD73 contain LY3475070 (CAS: 2375815-63-5) at 30 μM final assay concentration.
Compounds are pre-incubated with whole blood at 37° C. for 30 minutes. Following this, AMP is added in a 30 μl volume for a final assay concentration of 10 μM, mixed, and the plates are incubated for 15 minutes at 37° C. Final DMSO concentration/well is 0.6% and final volume/well is 200 μL. After incubating with AMP, the plates are placed on ice and then centrifuged at 2000 g for 10 minutes at 4° C. Plasma is removed and then diluted 1:10 with pre-chilled HBSS (Ca2+& Mg2+free) and kept on ice.
The stabilized AMP concentration in diluted plasma is measured using AMP-Glo kit (Promega), in parallel with a standard curve of known AMP concentrations, with a final volume of 40 μl in white flat bottom half-well 96-well plates (Corning). Signal is measured by Luminescence. The IC50 values of test compounds are determined as the inflection point of the sigmoidal concentration response curve.

| SMILES | IC50 [1] [nM] | IC50 [2] [nM] | IC50 (CD73 in whole blood) [nM] |
| --- | --- | --- | --- |
| O=c1[nH]cc(-n2cc3c(N4CCC(OCCN5CCCCC5)C4)ncnc3n2)c(=O)[nH]1 (stereo not drawn) [Example 12, 5-[4-[3-[2-(1-Piperidyl)ethoxy]pyrrolidin-1-yl]pyrazolo[3,4-d]pyrimidin-2-yl]-1H-pyrimidine-2,4-dione hydrochloride] | 33.7 | 2.7 | 0.6 |
| CC1(C)CCN(c2ncnc3sc(-c4c[nH]c(=O)[nH]c4=O)cc23)C1 [Example 2.1, 5-[4-(3,3-Dimethylpyrrolidin-1-yl)thieno[2,3-d]pyrimidin-6-yl]-1H-pyrimidine-2,4-dione] | 401 | 1120 | 6990 |
| O=c1[nH]cc(-c2nc3ncnc(N4CCC(OCCN5CCCCC5)C4)c3s2)c(=O)[nH]1 (stereo not drawn) [Example 6, 5-[7-[3-[2-(1-Piperidyl)ethoxy]pyrrolidin-1-yl]thiazolo[4,5-d]pyrimidin-2-yl]-1H-pyrimidine-2,4-dione] | 57.3 | 18.7 | 27.5 |
| O=c1[nH]cc(-c2cc3c(N4CC(F)(F)C5(CCC5)C4)nccn3n2)c(=O)[nH]1 [Example 25.1, 5-[4-(8,8-Difluoro-6-azaspiro[3.4]octan-6-yl)pyrazolo[1,5-a]pyrazin-2-yl]-1H-pyrimidine-2,4-dione] | 42.3 | 38.3 | 645 |
| N#Cc1ccc(OC2CCN(c3ncnc4nn(-c5c[nH]c(=O)[nH]c5=O)cc34)C2)nc1 (stereo not drawn) [Example 24, 6-[1-[2-(2,4-Dioxo-1H-pyrimidin-5-yl)pyrazolo[3,4-d]pyrimidin-4-yl]pyrrolidine-3-yl]oxypyridine-3-carbonitrile] | 35.5 | 11.8 | 1.4 |
| O=c1[nH]cc(-c2cc3nccc(N4CCC(OCCN5CCCCC5)C4)c3s2)c(=O)[nH]1 (stereo not drawn) [Example 16, 5-[7-[3-[2-(1-Piperidyl)ethoxy]pyrrolidin-1-yl]thieno[3,2-b]pyridin-2-yl]-1H-pyrimidine-2,4-dione] | 297 | 1340 | 1550 |
| CC1(C)CN(c2ncnc3nn(-c4c[nH]c(=O)[nH]c4=O)cc23)CC1(F)F [Example 13, 5-[4-(3,3-Difluoro-4,4-dimethyl-pyrrolidin-1-yl)pyrazolo[3,4-d]pyrimidin-2-yl]-1H-pyrimidine-2,4-dione] | 44.8 | 1.8 | 0.47 |
| O=c1[nH]cc(-c2cc3ncnc(N4CCC(OCCN5CCCCC5)C4)c3s2)c(=O)[nH]1 (stereo not drawn) [Example 8, 5-[4-[3-[2-(1-Piperidyl)ethoxy]pyrrolidin-1-yl]thieno[3,2-d]pyrimidin-6-yl]-1H-pyrimidine-2,4-dione] | 20.1 | 34.7 | 50.7 |
| O=c1[nH]cc(-c2cc3c(N4CC(F)(F)C5(CCC5)C4)ncnc3o2)c(=O)[nH]1 [Example 19, 5-[4-(8,8-Difluoro-6-azaspiro[3.4]octan-6-yl)furo[2,3-d]pyrimidin-6-yl]-1H-pyrimidine-2,4-dione] | 58.2 | 68.7 | 1240 |
| O=c1[nH]cc(-c2cc3c(N4CCC(OCCN5CCC(F)(F)CC5)C4)ncnn3c2)c(=O)[nH]1 (stereo not drawn) [Example 10.1, 5-[4-[3-[2-(4,4-Difluoro-1-piperidyl)ethoxy]pyrrolidin-1-yl]pyrrolo[2,1-f][1,2,4]triazin-6-yl]-1H-pyrimidine-2,4-dione] | 85.4 | 61.1 | 50.1 |
| O=C1N=CC(c2cc3c(N4CCC(OCCN5CCCCC5)C4)nc(Cl)nn3c2)C(=O)N1 (stereo not drawn) [Example 18, 5-[2-Chloro-4-[3-[2-(1-piperidyl)ethoxy]pyrrolidin-1-yl]pyrrolo[2,1-f][1,2,4]triazin-6-yl]-5H-pyrimidine-2,4-dione] | 62.5 | 91.1 | 118 |
| CC1(C)CN(c2nccc3nn(-c4c[nH]c(=O)[nH]c4=O)cc23)CC1(F)F [Example 27, 5-[4-(3,3-Difluoro-4,4-dimethyl-pyrrolidin-1-yl)pyrazolo[4,3-c]pyridin-2-yl]-1H-pyrimidine-2,4-dione] | 65 | 20 | 16 |
| N#Cc1ccc(OC2CCN(c3ncnc4sc(-c5c[nH]c(=O)[nH]c5=O)cc34)C2)nc1 (stereo not drawn) [Example 3, 6-[1-[6-(2,4-Dioxo-1H-pyrimidin-5-yl)thieno[2,3-d]pyrimidin-4-yl]pyrrolidin-3-yl]oxypyridine-3-carbonitrile] | 59.6 | 588 | 2220 |
| CN1CCOC(COC2CN(c3ncnc4sc(-c5c[nH]c(=O)[nH]c5=O)cc34)CC2(F)F)C1 (stereo not drawn) [Example 4.3, 5-[4-[3,3-Difluoro-4-[(4-methylmorpholin-2-yl)methoxy]pyrrolidine-1-yl]thieno[2,3-d]pyrimidin-6-yl]-1H-pyrimidine-2,4-dione formate salt] | 269 | 498 | 516 |
| O=c1[nH]cc(-n2cc3c(N4CCC5(COC5)C4)ncc(F)c3n2)c(=O)[nH]1 [Example 26.4, 5-[7-fluoro-4-(2-oxa-7-azaspiro[3.4]octan-7-yl)pyrazolo[4,3-c]pyridin-2-yl]-1H-pyrimidine-2,4-dione] | 68.2 | 17 | 69 |
| O=c1[nH]cc(-c2cc3c(N4CC(F)(F)C5(CC5)C4)ncnc3o2)c(=O)[nH]1 [Example 19.3, 5-[4-(7,7-Difluoro-5-azaspiro[2.4]heptan-5-yl)furo[2,3-d]pyrimidin-6-yl]-1H-pyrimidine-2,4-dione] | 137 | 28.3 | 652 |
| O=c1[nH]cc(-n2cc3c(N4CC(F)(F)C(F)(F)C4)ncnc3n2)c(=O)[nH]1 [Example 13.8, 5-[4-(3,3,4,4-Tetrafluoropyrrolidin-1-yl)pyrazolo[3,4-d]pyrimidin-2-yl]-1H-pyrimidine-2,4-dione] | 47.6 | 12.1 | 1.5 |
| O=c1[nH]cc(-n2cc3c(N4CC(F)(F)C5(CCCC5)C4)ncnc3n2)c(=O)[nH]1 [Example 13.3, 5-[4-(4,4-Difluoro-2-azaspiro[4.4]nonan-2-yl)pyrazolo[3,4-d]pyrimidin-2-yl]-1H-pyrimidine-2,4-dione] | 124 | 4.5 | 3.52 |
| CC1(C)CN(c2ncc(Cl)n3nc(-c4c[nH]c(=O)[nH]c4=O)cc23)CC1(F)F [Example 25.8, 5-[7-chloro-4-(3,3-difluoro-4,4-dimethyl-pyrrolidin-1-yl)pyrazolo[1,5-a]pyrazin-2-yl]-1H-pyrimidine-2,4-dione] | 16 | 2.8 | 38 |
| O=c1[nH]cc(-n2cc3c(N4CC(F)(F)C5(CC5)C4)ncc(Cl)c3n2)c(=O)[nH]1 [Example 28.1, 5-[7-chloro-4-(7,7-difluoro-5-azaspiro[2.4]heptan-5-yl)pyrazolo[4,3-c]pyridin-2-yl]-1H-pyrimidine-2,4-dione] | 15 | 3.6 | 20 |
| CC1(C)CN(c2ncc(C#N)c3nn(-c4c[nH]c(=O)[nH]c4=O)cc23)CC1(F)F [Example 29, 4-(3,3-difluoro-4,4-dimethyl-pyrrolidin-1-yl)-2-(2,4-dioxo-1H-pyrimidin-5-yl)pyrazolo[4,3-c]pyridine-7-carbonitrile] | 52 | 8 | 47 |
